# Measurements from patent US9658235B2, “Pi-extended acedan derivatives, their application for two-photon microscopy imaging, and their application for two-photon microscopy imaging of amyloid-beta plaque in an alzheimer's disease animal model” (POSTECH ACADEMY-INDUSTRY FOUNDATION, priority 2015, dated 2017).
# Columns and labels:
# [1] = Solubility in PBS buffer solution from absorption spectra; format: physicochemical; conditions: PBS 10 mM, pH 7.4, DMSO of less than 1%; concentrations of 1, 5 and 10 μM
# Description: Quartz cells having a path length of 1 cm were filled with a PBS buffer solution (10 mM, pH 7.4, DMSO of less than 1% included) which included the compounds 4a to 7a (R1=R2=Me) each having concentrations of 1, 2, 5 and 10 μM to measure absorption spectra.
# Quartz cells having a path length of 1 cm were filled with a PBS buffer solution (10 mM, pH 7.4, DMSO of less than 1% included) which included the compound 8a (R1=R2=Me) each having concentrations of 1, 5, 10, 15 and 20 μM to measure absorption spectra.
# amyloid beta 42 (Aβ 42) = molecular target: T1, amyloid beta 42 (Aβ 42) (Homo sapiens, UniProt P05067); test: Fluorescence spectra according to the presence of amyloid beta 42 and BSA; format: binding; conditions: 10 μM compound
# T1 construct: according to the presence of amyloid beta 42 (Aβ 42)
# T1 sequence (P05067 672-713 limits assumed): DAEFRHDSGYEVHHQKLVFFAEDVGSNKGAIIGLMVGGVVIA
# Description: Quartz cells having a path length of 1 cm were filled with a PBS buffer solution (10 mM, pH 7.4, 0.1%-DMSO included) or an artificial cerebrospinal fluid (NaCl (124 mM), KCl (3 mM), NaH2PO4 (1.25 mM), MgCl2 (1 mM), NaHCO3 (36 mM), D-gluocose (10 mM), CaCl2(2 mM), 95%-O2, 5%-CO2 (by bubbler), aCSF and 1%-DMSO included) which included the compound 8a (R1=R2=Me) having a concentration of 10 μM to measure fluorescence spectra according to the presence of amyloid beta 42 (Aβ 42) and bovine serum albumin (BSA, 20 μg/mL), and the result is shown in FIG. 4. Referring to FIG. 4, it may be determined that the fluorescence intensity of the compound 8a (R1=R2=Me) was low when an amyloid beta plaque was absent, and the fluorescence intensity of the compound 8a (R1=R2=Me) increased when an amyloid beta plaque was present. […] In order to determine the fluorescent properties (y-axis) of the compound 8a (R1=R2=Me) according to the concentration of an amyloid beta plaque (x-axis), quartz cells having a path length of 1 cm were filled with a PBS buffer solution (1%-DMSO included) which included the compound 8a (R1=R2=Me) having a concentration of 10 μM and an amyloid beta plaque (0-50 μM) to measure fluorescence spectra, and the result is shown in FIG. 14.
# [2] = Fluorescence intensity according to pH; format: physicochemical; conditions: 10 μM, aqueous solution (1%-DMSO), pH 4 to 10, excitation 500 nm
# Description: In order to determine the fluorescent properties (y-axis) of the compound 8a (R1=R2=Me) according to the pH (x-axis), quartz cells having a path length of 1 cm were filled with an aqueous solution (1%-DMSO included) which has a pH in the range of 4 to 10 and included the compound 8a (R1=R2=Me) having a concentration of 10 μM to measure the fluorescence spectrum, and the result is shown in FIG. 15.
# amyloid beta plaque = molecular target: T2, amyloid beta plaque (Homo sapiens, UniProt P05067); test: In vivo two-photon microscope imaging of amyloid beta plaque in an Alzheimer's disease animal model; set-up: species or system 5XFAD mice
# T2 construct: tissue The Jackson Laboratory stock no; 006554; host or cells: brain of living 5XFAD (Tg6799) mice, 13 months old, imaged through a cranial window
# T2 sequence (P05067 672-713 limits assumed): as above
# Description: In order to observe the two-photon microscope image of tissue of mice treated with the compound 8a (R1=R2=Me), 5XFAD mice (13-months-old, The Jackson Laboratory, Bar Harbor, Me., USA; stock no. 006554, Tg6799) were used. An amyloid beta plaque is shown as a typical characteristic of Alzheimer's disease.
# All animal experiments were performed after the approval from an animal testing ethics committee. In an open-skull craniotomy surgery, imaging was performed after treatment with the compound 8a (R1=R2=Me) and MeO-X04 which is a well-known amyloid beta plaque fluorophore. The mice were fixed on a stereotactic heating surface using Zoletil 50 (Virbac; intramuscular injection, 0.03 mL) as an anesthetic agent (Seoul, Republic of Korea, 37° C.). After a scalp and periosteum were removed, a hole having a diameter of 3 mm was formed at a distance 1 mm from the bregma and 1 mm from the sagittal suture of a skull, a bone was removed, and then a round coverslip was adhered thereto using Loctite 454. The exposed portion of the skull was covered with a dental acrylic, and dexamethasone (0.2 mg/kg) and carprofen (5 mg/kg) which are anti-inflammatory drugs were used before and after the surgery.
# A product manufactured by Carl Zeiss Microscopy GmbH (Oberkochen, Germany; model no. LSM 7 MP two-photon laser scanning microscope system) was used as a two-photon microscope. […] Further, the photo-bleaching process images and the relative fluorescence intensity in […] images before and after irradiation with a light source with respect to the compound 8a (R1=R2=Me) and a complex compound of an amyloid beta plaque are shown in FIG. 18. Referring to FIG. 18, it may be determined that the fluorescence intensity of the compound 8a (R1=R2=Me) decreased about 40% when irradiated with a two-photon light source for 35 minutes.
# SHSY5Y cells = test: MTT cytotoxicity; format: cell-based; conditions: 1 hour, described as low cytotoxicity
# Description: In order to determine the cytotoxicity of cells treated with the compound 4a (R1=R2=Me) and the compound 8a (R1=R2=Me), the metabolic capability of a formazan of SHSY5Y cells with respect to […] (MTT) was evaluated.
# More specifically, the cells (100 μL/well) were prepared with the density of about 5×10^3 cells in each well on a 96-well plate. The cells were treated with the compound 4a (R1=R2=Me) and the compound 8a (R1=R2=Me) each having concentrations of 1, 20 and 50 μM, was incubated for 1 hour, were cleaned using a PBS buffer solution, and 25 μL of a MTT solution (5 mg/mL) was added to each well. After the cells were incubated at 37° C. for 2 hours, the media was removed, and a formazan crystal was dissolved in DMSO to measure absorbance using a plate reader. […] Accordingly, it may be determined that the cytotoxicity of the compound 4a (R1=R2=Me) and the compound 8a (R1=R2=Me) was low to be suitable for obtaining a two-photon microscope image in tissue and an animal model.
# [3] = Absorption properties of two-photon absorbing fluorophores; format: physicochemical; conditions: 10 μM in ethanol solution (1%-DMSO included)
# Description: More specifically, in order to determine the absorption properties of two-photon absorbing fluorophores, the inventors of the present invention filled quartz cells (114F-QS, Hellma Analytics) having a path length of 1 cm with an ethanol solution (1%-DMSO included) which included the compounds 4a to 7a (R1=R2=Me) having a concentration of 10 μM to measure absorption spectra. […] The absorption spectra were measured using an HP 8453 UV/Vis spectrophotometer.
# Thereafter, a molar extinction coefficient (ε(Lmol^−1 cm^−1)) in a maximum absorption wavelength was calculated with respect to an ethanol solution (1%-DMSO included) which included the compounds 4a to 8a (R1=R2=Me) having a concentration of 10 μM, and the result is shown in FIG. 6. Referring to FIG. 6, it may be determined that the molar extinction coefficients (ε>11,500) for the two-photon absorbing fluorophores (particularly, compounds 4a to 8a (R1=R2=Me)) according to the embodiment of the present invention were larger than that (ε=10,700) of acedan known as a conventional two-photon absorbing fluorophore.
# [4] = Fluorescent properties (emission spectra, fluorescence quantum yield); format: physicochemical
# Description: More specifically, in order to determine the fluorescent properties of two-photon absorbing fluorophores, the inventors of the present invention filled quartz cells having a path length of 1 cm with an ethanol solution (1%-DMSO included) which included the compounds 4a to 7a (R1=R2=Me) having a concentration of 10 μM to measure fluorescence spectra (fluorescence spectra were measured using a photon technical international fluorescence system). The results thereof with normalized fluorescence as a y-axis and light wavelength as an x-axis are shown in FIG. 1(B) and with fluorescence intensity as a y-axis and light wavelength as an x-axis are shown in FIG. 7.
# Quartz cells having a path length of 1 cm were filled with a dichloromethane, acetonitrile, ethanol (1%-DMSO included) and PBS buffer solution (10 mM, pH 7.4, 0.1%-DMSO included) which included compound 4a (R1=R2=Me) having a concentration of 1 μM to measure fluorescence spectra.
# Further, the fluorescence quantum yield was measured with respect to an ethanol solution including the compounds 4a to 8a (R1=R2=Me) having a concentration of 10 μM, and the result is shown in FIG. 6. Acedan which is mainly used was used as a comparative compound (fluorescence quantum yield, ΦF=0.52, measured in ethanol solution).
# [5] = conventional acedan; cited from earlier work
structure (smiles),measurement,setting,value
"CN(C)c1ccc2cc3c(cc2c1)OCC(C=C(C#N)C#N)=C3 [compound 8a, 2-(((8-dimethylamino)-2H-benzo[g]chromene-3-yl)methylene)malononitrile]",solubility in a PBS buffer solution,[1],sufficient solubility
same,fluorescence intensity when an amyloid beta plaque was present,"amyloid beta 42 (Aβ 42); Aβ42 20 μM, PBS (pH 7.4) or aCSF, low when plaque absent",increased
same,selective detection of amyloid beta plaque,"amyloid beta 42 (Aβ 42); Aβ42 versus BSA 20 μg/mL, PBS or aCSF",selectively detected an amyloid beta plaque
same,fluorescence intensity according to pH,[2],low regardless of pH
same,visualization of amyloid beta plaque in animal model with Alzheimer's disease,"amyloid beta plaque; 30 mg/kg intraperitoneal, 13-month-old 5XFAD mice, frontal cortex, 1,000 nm, depth to 300 μm",selectively visualize an amyloid beta plaque
same,conformity of image with MeO-X04 image,"amyloid beta plaque; 30 mg/kg intraperitoneal, 24 hours before imaging, 1,000 nm, MeO-X04 10 mg/kg, 780 nm",significantly high
same,decrease of fluorescence intensity (photo-bleaching),"amyloid beta plaque; complex with amyloid beta plaque, tissue depth 50 μm, two-photon light source for 35 minutes",about 40%
same,cytotoxicity (apoptosis),SHSY5Y cells; 1 to 50 μM,20%
"CC(=O)c1ccc2cc(N(C)C)ccc2c1 [acedan, 1-(6-dimethylaminonaphthalene-2-yl) ethanone]",molar extinction coefficient (ε) in a maximum absorption wavelength,[3],"10,700 Lmol^−1 cm^−1"
same,fluorescence quantum yield ΦF,"[4]; measured in ethanol solution, comparative compound",0.52
same,two-photon absorption efficiency value,[5],~100 GM
"CN(C)c1ccc2cc3c(cc2c1)OC1CCCC(=O)C1=C3 (stereo not shown) [compound 4a, 8-(dimethylamino)-2,3,4a-tetrahydro-1H-benzo[b]xanthene-1-one]",maximum emission wavelength (λem) compared with acedan,"[4]; 1 μM in dichloromethane, acetonitrile, ethanol and PBS buffer solution",longer than that of conventional acedan
same,cytotoxicity (apoptosis),SHSY5Y cells; 1 μM and 20 μM,20%
